{"source": "patent US12606520B2", "about": "“Calpain-2 inhibitor compounds and methods of treatment” (WESTERN UNIVERSITY OF HEALTH SCIENCES, priority 2020, dated 2026)", "key": {"[1]": {"assay": "Stability in mouse plasma at 37° C. (residual inhibition of purified human calpain-2)", "format": "in vitro ADME", "conditions": "β-cyclodextrin formulation, 10 μM", "method": "NA112 (C12, 0.2 mM) was incubated with mouse plasma at 37° C. for the indicated periods of time. Aliquots were taken and the degree of inhibition of purified human calpain-2 was measured. Results were normalized to the maximum degree of inhibition (100%) measured at to.\nNA112A in β-cyclodextrin formulation (10 μM) was incubated in mouse plasma at 37° C. for the indicated periods of time. Aliquots were taken and the degree of inhibition of purified human calpain-2 was measured. Results were normalized to the maximum degree of inhibition (50%) measured at t0."}, "[2]": {"target": "T1, calpain-2 (Homo sapiens, UniProt P17655)", "T1 sequence (P17655 1-700)": "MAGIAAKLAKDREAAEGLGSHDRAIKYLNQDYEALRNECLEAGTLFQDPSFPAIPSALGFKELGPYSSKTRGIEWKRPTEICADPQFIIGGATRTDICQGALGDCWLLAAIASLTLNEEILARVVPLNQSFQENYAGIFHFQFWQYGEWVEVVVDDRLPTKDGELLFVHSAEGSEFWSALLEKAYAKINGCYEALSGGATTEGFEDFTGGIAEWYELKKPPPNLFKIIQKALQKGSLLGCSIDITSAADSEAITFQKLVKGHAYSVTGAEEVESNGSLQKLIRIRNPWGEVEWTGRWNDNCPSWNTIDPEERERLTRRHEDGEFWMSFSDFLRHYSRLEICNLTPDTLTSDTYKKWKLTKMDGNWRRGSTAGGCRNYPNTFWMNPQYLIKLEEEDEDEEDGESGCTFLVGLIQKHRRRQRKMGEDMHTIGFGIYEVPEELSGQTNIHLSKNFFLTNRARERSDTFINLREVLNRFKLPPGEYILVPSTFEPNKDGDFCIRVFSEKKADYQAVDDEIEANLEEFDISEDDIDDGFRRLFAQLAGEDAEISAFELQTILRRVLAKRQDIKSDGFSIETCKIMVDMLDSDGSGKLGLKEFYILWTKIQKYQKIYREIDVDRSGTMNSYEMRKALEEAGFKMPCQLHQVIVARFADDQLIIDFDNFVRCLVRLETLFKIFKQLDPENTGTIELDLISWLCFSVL", "T1 sequence (P04632 1-268 partner)": "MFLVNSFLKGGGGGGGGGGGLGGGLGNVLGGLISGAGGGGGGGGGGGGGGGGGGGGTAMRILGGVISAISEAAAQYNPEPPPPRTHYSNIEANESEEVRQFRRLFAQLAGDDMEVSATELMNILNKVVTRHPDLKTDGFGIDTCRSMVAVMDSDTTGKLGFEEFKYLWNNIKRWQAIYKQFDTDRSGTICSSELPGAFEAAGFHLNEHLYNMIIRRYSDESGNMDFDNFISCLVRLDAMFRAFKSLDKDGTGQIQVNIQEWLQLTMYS", "assay": "Inhibitory activity of NA112 isomers against calpain-2", "format": "biochemical", "conditions": "highest concentration tested, 3 μM", "method": "(§1) The inhibitory activity of the compounds NA112A (S-S isomer) and NA112B (S-R stereoisomer) against calpain-1 and calpain-2 were determined."}, "[3]": {"target": "T2, calpain-1 (Homo sapiens, UniProt P07384)", "T2 sequence (P07384 1-714)": "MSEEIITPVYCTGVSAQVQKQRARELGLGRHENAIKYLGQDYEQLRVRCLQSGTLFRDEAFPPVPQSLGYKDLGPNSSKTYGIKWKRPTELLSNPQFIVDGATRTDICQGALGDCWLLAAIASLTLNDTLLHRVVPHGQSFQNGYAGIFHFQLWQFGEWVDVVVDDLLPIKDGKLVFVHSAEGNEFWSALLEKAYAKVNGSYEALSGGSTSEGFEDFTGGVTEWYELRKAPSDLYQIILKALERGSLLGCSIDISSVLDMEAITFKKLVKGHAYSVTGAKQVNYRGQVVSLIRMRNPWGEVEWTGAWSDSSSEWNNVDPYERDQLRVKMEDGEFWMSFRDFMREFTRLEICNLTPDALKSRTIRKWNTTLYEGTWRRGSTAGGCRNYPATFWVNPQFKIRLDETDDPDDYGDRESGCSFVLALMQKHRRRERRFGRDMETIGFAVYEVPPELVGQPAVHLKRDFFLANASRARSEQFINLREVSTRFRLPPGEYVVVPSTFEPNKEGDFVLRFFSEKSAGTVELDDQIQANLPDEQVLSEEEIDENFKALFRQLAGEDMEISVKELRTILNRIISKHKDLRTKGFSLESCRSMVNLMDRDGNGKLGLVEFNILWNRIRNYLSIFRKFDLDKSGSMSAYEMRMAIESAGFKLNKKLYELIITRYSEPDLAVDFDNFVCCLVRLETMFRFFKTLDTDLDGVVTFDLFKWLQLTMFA", "T2 sequence (P04632 1-268 partner)": "T1 sequence (P04632 1-268 partner)", "assay": "Inhibitory activity of NA112 isomers against calpain-1", "format": "biochemical", "conditions": "highest concentration tested, 3 μM", "method": "as §1"}, "[4]": {"assay": "Epimerization/inactivation in PBS at 37° C.", "format": "physicochemical"}, "[5]": {"target": "T3, recombinant human calpain-2 (hcalpain-2) (Homo sapiens, UniProt P17655)", "T3 sequence (P17655 1-700)": "T1 sequence (P17655 1-700)", "T3 sequence (P04632 1-268 partner)": "T1 sequence (P04632 1-268 partner)", "assay": "Inhibition of recombinant human calpain-2", "format": "biochemical", "conditions": "highest concentration tested, 3 μM", "method": "(§2) Various concentrations of NA112 in the liposomal formulation were incubated with human calpain-1 (purified from erythrocytes, ecalpain-1) or a recombinant human calpain-2 (hcalpain-2) and calpain activity assayed as in FIG. 1. IC50 were determined and transformed into Ki values (FIG. 10A, 10B). Values previously obtained with NA112 dissolved in DMSO are shown for comparison (FIG. 10B).\n(§3) Cerebellar homogenates from wild-type (WT) or calpain-1 Knock-out (KO) mice were incubated with 20 μM calcium to activate calpain-1 or with 2 mM calcium to activate calpain-2, respectively, and increasing concentrations of NA184.\n(§4) Like in NA112, there are 2 chiral centers in NA184. The inhibitory activity of the compounds NA184A (S-S isomer) and NA184B (S-R stereoisomer) against erythrocyte human calpain-1 (ecalpain-1) and recombinant human calpain-2 (hcalpain-2) were determined."}, "[6]": {"target": "T4, human calpain-1 (purified from erythrocytes, ecalpain-1) (Homo sapiens, UniProt P07384)", "T4 construct": "human calpain-1 (purified from erythrocytes, ecalpain-1); from tissue; host or cells: human erythrocytes", "T4 sequence (P07384 1-714)": "T2 sequence (P07384 1-714)", "T4 sequence (P04632 1-268 partner)": "T1 sequence (P04632 1-268 partner)", "assay": "Inhibition of human calpain-1 purified from erythrocytes", "format": "biochemical", "conditions": "highest concentration tested, 3 μM", "method": "as §2, §3, §4"}}, "note": "“Also recorded” adds a separate entry of the source.", "data": [{"molecule": "CC[C@H](NC(=O)[C@H](CC(C)C)NC(=O)NCc1ccccc1)C(=O)C(=O)NCc1cc(OC)cc(OC)c1", "note": "[NA112A, (S)-2-(3-benzylureido)-N-((S)-1-((3,5-dimethoxybenzyl)amino)-1,2-dioxopentan-3-yl)-4-methylpentanamide]", "values": [{"measurement": "Inactivation in mouse plasma", "setting": "[1]", "result": "rapidly inactivated; also recorded: became inactive"}, {"measurement": "Inhibitory activity against calpain-2", "setting": "[2]", "result": "expected inhibitory activity"}]}, {"molecule": "CC[C@@H](NC(=O)[C@H](CC(C)C)NC(=O)NCc1ccccc1)C(=O)C(=O)NCc1cc(OC)cc(OC)c1", "note": "[NA112B]", "values": [{"measurement": "Inhibitory activity against calpain-1", "setting": "[3]", "result": "no inhibitory activity"}, {"measurement": "Inhibitory activity against calpain-2", "setting": "[2]", "result": "no inhibitory activity"}]}, {"molecule": "CC[C@H](NC(=O)[C@H](CC(C)C)NC(=O)NCc1ccccc1)C(=O)C(=O)NCc1cccc(Cl)c1OC", "note": "[NA184A]", "values": [{"measurement": "Epimerization/inactivation in PBS", "setting": "[4]", "result": "rapidly inactivated; also recorded: rapid epimerization"}, {"measurement": "Inhibitory activity against hcalpain-2", "setting": "[5]", "result": "expected inhibitory activity"}, {"measurement": "Inhibitory activity against ecalpain-1", "setting": "[6]", "result": "expected inhibitory activity"}]}, {"molecule": "CC[C@@H](NC(=O)[C@H](CC(C)C)NC(=O)NCc1ccccc1)C(=O)C(=O)NCc1cccc(Cl)c1OC", "note": "[NA184B]", "values": [{"measurement": "Inhibitory activity against hcalpain-2", "setting": "[5]", "result": "no inhibitory activity"}, {"measurement": "Inhibitory activity against ecalpain-1", "setting": "[6]", "result": "no inhibitory activity"}]}]}
